Here are results for 1 compound from patent US20220145406A1, “BIOMARKERS, AND USES IN TREATMENT OF VIRAL INFECTIONS, INFLAMMATIONS, OR CANCER” (ABIVAX, priority 2018, published 2022).

The assay concerns HIV-1 YU-2 strain. The assay can be described thus: HIV-1 replication measured by p24 production in infected PBMCs. Type of assay: cell-based. The conditions noted are these: Human immunodeficiency virus 1, PBMC; 5 μM ABX464; PBMCs from 6 donors infected with YU-2 strain; read-out: inhibition of viral replication (p24 production). The protocol:
Buffy coats from HIV-negative individuals were obtained from the local blood donation center in Centre de transfusion sanguine Montpellier. Human peripheral blood mononuclear cells (PBMCs) were isolated by Ficoll (Histopaque, Sigma) gradient centrifugation. CD4+ and CD8+ T cells were purified from PBMCs after Ficoll gradient centrifugation by Human CD4+ beads positive selection and CD8+ beads positive selection, respectively (Miltenyi). PBMCs, CD4+ and CD8+ T cells were grown at 37° C. and 5% CO2 to a density of 1.5×10^6 cells/ml in RPMI GlutaMAX medium (Life Technologies) supplemented with 10% fetal calf serum (FCS) (Thermo Fisher), 40 U/ml of IL2 (PeproTech) and 5 μg/mL of PHA (Roche) for 2 days. […]
PBMCs from 6 HIV-negative donors were infected with the YU-2 strain, followed by treatment with ABX464. […] To highlight potential new splicing events induced by ABX464, we used a custom bioinformatics pipeline with the main step involving the assembly of putative transcripts from targeted RNA sequencing reads to construct contigs (Illumina paired-end 2×75 bp) (FIGS. 6 A and B). […] The HIV profiling datasets used in our analysis yielded high sequence coverage (2 to 30 million reads for the 9 kb genome), allowing deep quantification of HIV splice variants.

As to `FC(F)(F)Oc1ccc(Nc2ccc3cccc(Cl)c3n2)cc1` [ABX464, 8-chloro-N-(4-(trifluoromethoxy)phenyl)quinolin-2-amine], the inhibition (in general, the relative decrease from the control value, in per cent) at 5 µM was more than 70%.
